Assay results reported in publication PMC9019904, “AD Informer Set: Chemical tools to facilitate Alzheimer's disease drug discovery” (Alzheimer's & Dementia : Translational Research & Clinical …, 2022).
Values after ≈ are worked out from the molar mass of the structure shown.

Assays:
[1] = tested on: BV2 (mouse microglia) cell line; assay: pHrodo-myelin phagocytosis/cell viability high content imaging assay: phagocytosis signal; type: cell-based; settings: BV2 cells, 10 μM
In short: (§1)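 Simultaneous phagocytosis/viability imaging at approximately 22 h after adding pHrodo-myelin. Rising intensity flagged early apoptosis and falling intensity later apoptosis.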

[2] = Kinetic solubility in aqueous buffer pH 7.4 by total chemiluminescent nitrogen determination (Analiza); settings: aqueous buffer, pH 7.4, aqueous buffer, kinetic from dmso stock
cellular system = settings: published cellular activity at 10 μM; cited from earlier work
[3] = tested on: HMC3 (human microglia) cell line; assay: pHrodo-myelin phagocytosis/cell viability high content imaging assay: phagocytosis signal; type: cell-based; settings: HMC3 cells, 10 μM
In short: as §1

[4] = tested on: BV2 (mouse microglia) cell line; assay: pHrodo-myelin phagocytosis/cell viability high content imaging assay: viability (cell count, nuclear area, nuclear intensity); settings: BV2 cells, 10 μM, cell count <70% control
In short: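 10 μM single dose, 48 h total; pHrodo-myelin present final 20 h. Read-out: automated imaging, total cell count/well, mean nuclear intensity/cell. n=2, normalized to untreated wells, % control.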

SMILES | Stimulation of mouse microglial phagocytosis at 10 μM (>150% control) [1] | solubility kinetic [2] [µM] | Reported as cell active (<10 μM) (cellular system) | Inhibition of human microglial phagocytosis at 10 μM (<70% control) [3] | Inhibition of mouse microglial phagocytosis at 10 μM (<70% control) [1] | Mouse microglial cytotoxicity at 10 μM (<70% control) [4]
Nc1ncnc2c1nc(Br)n2[C@@H]1O[C@@H]2COP(=O)([O-])O[C@H]2[C@H]1O.[Na+] [8-Bromo-cAMP (sodium salt)] | Y (The compound was found to stimulate phagocytosis (response threshold: >150% control) when murine immortalized microglial cells were dosed at 10 μM (Y: yes)) | 166 | Y (Published data supports that the compound is active in a cellular system when dosed at 10 μM (Y/N)) | – | – | –
C[C@H](CCCC(C)(C)O)[C@H]1CC[C@H]2[C@@H]3CC=C4C[C@@H](O)CC[C@]4(C)[C@H]3CC[C@]12C [25-Hydroxycholesterol] | – | – | Y (Published data supports that the compound is active in a cellular system when dosed at 10 μM (Y/N)) | Y (The compound was found to inhibit phagocytosis (response threshold: <70% control) when human immortalized microglial cells were dosed at 10 μM (Y: yes)) | Y (The compound was found to inhibit phagocytosis (response threshold: <70% control) when murine immortalized microglial cells were dosed at 10 μM (Y: yes)) | –
Cc1c(COc2cc(OCc3cccc(C#N)c3)c(CN3C[C@H](O)C[C@@H]3C(=O)O)cc2Cl)cccc1-c1ccc2c(c1)OCCO2 [BMS-1166] | – | 2.1 (≈ 1.35 µg/mL) | Y (Published data supports that the compound is active in a cellular system when dosed at 10 μM (Y/N)) | – | – | –
O=C1CCc2cc(OCCCCc3nnnn3C3CCCCC3)ccc2N1 [Cilostazol (OPC 13013)] | – | 58.5 (≈ 21.6 µg/mL) | Y (Published data supports that the compound is active in a cellular system when dosed at 10 μM (Y/N)) | – | – | –
COc1ccc(CCN2CCN(CCCc3ccccc3)CC2)cc1OC.Cl.Cl [Cutamesine (SA 4503)] | – | 108 | Y (Published data supports that the compound is active in a cellular system when dosed at 10 μM (Y/N)) | – | – | –
CCCc1cc(-c2nc(-c3ccc(C)cc3)cs2)ccn1 [Fatostatin] | Y (The compound was found to stimulate phagocytosis (response threshold: >150% control) when murine immortalized microglial cells were dosed at 10 μM (Y: yes)) | < 1.1 | Y (Published data supports that the compound is active in a cellular system when dosed at 10 μM (Y/N)) | – | – | Y (The compound was found to be cytotoxic (cell count threshold: <70% control) when murine immortalized microglial cells were dosed at 10 μM (Y: yes))
CCOC(=O)c1cccc(CNc2ccc(N(C)C(=O)Nc3ccccc3)cc2)c1 [GN6958 (Compound 8)] | Y (The compound was found to stimulate phagocytosis (response threshold: >150% control) when murine immortalized microglial cells were dosed at 10 μM (Y: yes)) | 3.7 (≈ 1.49 µg/mL) | Y (Published data supports that the compound is active in a cellular system when dosed at 10 μM (Y/N)) | – | – | –
CN1c2ccc([N+](=O)[O-])cc2N=C(c2ccc(C(=O)O)cc2)c2cc3c(cc21)C(C)(C)CCC3(C)C [HX531] | – | < 0.7 | Y (Published data supports that the compound is active in a cellular system when dosed at 10 μM (Y/N)) | – | – | Y (The compound was found to be cytotoxic (cell count threshold: <70% control) when murine immortalized microglial cells were dosed at 10 μM (Y: yes))
Cc1cc(C)nc(NS(=O)(=O)c2ccc(NC(=O)NC(=O)c3ccc(Cl)cc3Cl)cc2)n1 [LDN-193188] | – | 7.1 (≈ 3.51 µg/mL) | Y (Published data supports that the compound is active in a cellular system when dosed at 10 μM (Y/N)) | – | – | –
Cc1cc2c(cc1C1(c3ccc(C(=O)O)cn3)CC1)C(C)(C)CCC2(C)C [LG 100268] | – | 92.8 (≈ 33.7 µg/mL) | Y (Published data supports that the compound is active in a cellular system when dosed at 10 μM (Y/N)) | – | – | –
Oc1c(F)cc(-c2cnccc2-c2ccc(N3CCOCC3)cc2)cc1F [LJI308] | Y (The compound was found to stimulate phagocytosis (response threshold: >150% control) when murine immortalized microglial cells were dosed at 10 μM (Y: yes)) | 3.7 (≈ 1.36 µg/mL) | Y (Published data supports that the compound is active in a cellular system when dosed at 10 μM (Y/N)) | – | – | –
Cc1cc(C)nc(NC(=S)N2CCN(c3ccc(C(F)(F)F)cn3)CC2)c1 [NCT-502] | Y (The compound was found to stimulate phagocytosis (response threshold: >150% control) when murine immortalized microglial cells were dosed at 10 μM (Y: yes)) | 2.6 (≈ 1.03 µg/mL) | Y (Published data supports that the compound is active in a cellular system when dosed at 10 μM (Y/N)) | – | – | –
Cc1cc(C)nc(NC(=S)N2CCN(Cc3ccc(C(F)(F)F)cc3)CC2)c1 [NCT-503] | Y (The compound was found to stimulate phagocytosis (response threshold: >150% control) when murine immortalized microglial cells were dosed at 10 μM (Y: yes)) | 34.3 (≈ 14 µg/mL) | Y (Published data supports that the compound is active in a cellular system when dosed at 10 μM (Y/N)) | – | – | –
C[C@@H]1O[C@@H](O[C@H]2[C@H](Oc3cc(O)c4c(c3)O[C@H](c3ccc(O)cc3)CC4=O)O[C@H](CO)[C@@H](O)[C@@H]2O)[C@H](O)[C@H](O)[C@H]1O [Naringin] | Y (The compound was found to stimulate phagocytosis (response threshold: >150% control) when murine immortalized microglial cells were dosed at 10 μM (Y: yes)) | – | Y (Published data supports that the compound is active in a cellular system when dosed at 10 μM (Y/N)) | Y (The compound was found to inhibit phagocytosis (response threshold: <70% control) when human immortalized microglial cells were dosed at 10 μM (Y: yes)) | – | –
CCc1ccc(CCOc2ccc(CC3SC(=O)NC3=O)cc2)nc1 (centres unmarked) [Pioglitazone] | – | 3.2 (≈ 1.14 µg/mL) | Y (Published data supports that the compound is active in a cellular system when dosed at 10 μM (Y/N)) | – | – | –
CN(CCOc1ccc(CC2SC(=O)NC2=O)cc1)c1ccccn1 (centres unmarked) [Rosiglitazone] | – | 57 (≈ 20.4 µg/mL) | Y (Published data supports that the compound is active in a cellular system when dosed at 10 μM (Y/N)) | – | – | –
CC(=O)c1nc([C@@H](O)[C@H](O)[C@H](O)CO)c[nH]1 [THI] | Y (The compound was found to stimulate phagocytosis (response threshold: >150% control) when murine immortalized microglial cells were dosed at 10 μM (Y: yes)) | 186 (≈ 42.8 µg/mL) | Y (Published data supports that the compound is active in a cellular system when dosed at 10 μM (Y/N)) | – | – | –
Nc1ncnc2c1nc(Sc1ccc(Cl)cc1)n2[C@@H]1O[C@@H]2COP(=O)([O-])O[C@H]2[C@H]1O.[Na+] [pCPT-cAMP] | – | 135 | Y (Published data supports that the compound is active in a cellular system when dosed at 10 μM (Y/N)) | – | – | –
CCc1ccc(S(=O)(=O)c2ccccc2)cc1S(=O)(=O)NCCCN(C)C [sFRP-1 Inhibitor] | Y (The compound was found to stimulate phagocytosis (response threshold: >150% control) when murine immortalized microglial cells were dosed at 10 μM (Y: yes)) | 164 (≈ 67.2 µg/mL) | Y (Published data supports that the compound is active in a cellular system when dosed at 10 μM (Y/N)) | – | – | –
